Laboratory results: patent EP0199170A1, “Composition and method for providing cytoprotection of the gastric mucosa in a mammal receiving aspirin” (priority 1985, dated 1986)
Where two headings read alike, the source gives them in different places. Marks after values point to notes of the source that are not given here.

Key:
[1] = system: Adjuvant Arthritis In Rats; assay: Adjuvant-induced arthritis assay (chronic inflammation, injected hind paw volume); conditions: for inhibition at 150 mg/kg: Rattus norvegicus, po, 384 h; for Injected Hind Paw Volume ml + S.E.: adjuvant control 5.57±0.4, normal control 1.89±0.03; for influence on the antiinflammatory efficacy of aspirin: adjuvant-induced arthritis assay, coadministered with aspirin
Protocol: 300 mg/kg for 16 days coadministered with 150 mg/kg of aspirin in an adjuvant-induced arthritis assay [C.J. Pearson, "Experimental Joint Disease", J. Chron.

Aspirin Lesions = assay: Gastric cytoprotection against aspirin lesions in adjuvant arthritic rats; assay type: in vivo, Sprague-Dawley rats; conditions: for Area of Lesion (mm^2), Mean + S.E. / No. of Lesions, Mean + S.E. / No. of Rats with Lesions: single daily oral administration for 16 days; for effectiveness as cytoprotectant against aspirin-induced gastric lesions in arthritic rats: coadministered with aspirin in the adjuvant-induced arthritis assay
Protocol: 300 mg/kg for 16 days coadministered with 150 mg/kg of aspirin in an adjuvant-induced arthritis assay [C.J. Pearson, "Experimental Joint Disease", J. Chron. […] At the completion of the assay-the stomachs were excised and examined for the presence or absence of lesions.

[2] = system: Acute Inflammation In Rats; assay: Carrageenin model of acute inflammation (paw edema); assay type: in vivo, Sprague-Dawley rats; conditions: for inhibition at 100 mg/kg: Rattus norvegicus; for Mean Paw Edema, ml+S.E.: control 1.16±0.1, 9 rats per group
Protocol: Male Sprague-Dawley rats (initial weight of about 200 g.) received a single oral dose of sodium thiosulfate (anhydrous) at either 30, 100 or 300 mg/kg coadministered with 100 mg/kg of aspirin in the carrageenin model of acute inflammation (paw edema) [C.A. Winter et al, "Carrageenin-lnduced Edema in Hind Paw of the Rat as an Assay for Anti-Inflammatory Drugs, "Proc. Soc. Exptl.

male Sprague-Dawley rats = assay: Acute oral toxicity in rats; conditions: for toxicity: summary statement
Text: Sodium thiosulfate (anhydrous) was given as a single oral dose to male Sprague-Dawley rats weighing approximately 116-140 g to determine its approximate acute oral LD50. The rats were fasted for four hours before medication, observed for seven days following medication and all surviving rats sacrificed and necropsied at the completion of the study.

[3] = system: Aspirin-induced Gastric Mucosal Erosions; assay: Aspirin-induced hemorrhagic gastric erosions in fasted rats, lesion number and area by computerized planimetry; assay type: in vivo, Sprague-Dawley rats; conditions: for gastric cytoprotection: coadministered with acidified aspirin 10 mg/100 g, fasted rats; for Aspirin-induced Gastric Mucosal Erosions, percentage of glandular stomach area / Aspirin-induced Gastric Mucosal Erosions, total number of erosions: sacrificed 1 hour after; for Aspirin-induced Gastric Mucosal Erosions, percentage of glandular stomach area: dose 0 group 1.42; for Aspirin-induced Gastric Mucosal Erosions, total number of erosions: dose 0 group 11.90
Protocol: Fasted Sprague-Dwaley female rats were given intragastrically (ig) at least four different doses ranging from 1-30 mg/100 g. body weight of sodium thiosulfate either 30 minutes before or parallel with intragastric administration of 10 mg/100 g body weight of acidified aspirin. Rats were killed one hour after aspirin administration and the number of hemorrhagic gastric erosions (or_ lesions) was determined and the area of erosion was measured by computerized planimetry.
Fasted Sprague-Dawley Female rats were given intragastrically (ig) at least three different doses ranging from 5-30 mg/100 g body weight of 3,3'-thiobis[propanoic acid] either 30 minutes before or parallel with intragastric administration of 10 mg/100 g body weight of acidified aspirin. Rats were killed one hour after aspirin administration and the number of hemorrhagic gastric erosions (or lesions) was determined and the area of erosion was measured by computerized planimetry. 3,3'-Thiobis[propanoic acid]
All of the experiments in this example were performed in female Sprague-Dawley rats having an initial body weight of 150-200 g. […] Before the administration of aspirin, the rats were fasted over night. […] The extent of gastric mucosal injury was evaluated by a Zeiss stereomicroscope coupled with a computerized planimeter which allowed both surface measurement and counting of lesions, according to the published method of Sandor Szabo et al entitled "A Quantitative Method for Assessing the Extent of Experimental Gastric Erosions and Ulcers", J. Pharmacological Methods 13, 59-66, 1985. Light microscopy of formalin-fixed sections was also performed.
Aspirin was suspended in 1% methylcellulose dissolved in 200 mM HCI and was administered at 10 mg/100 g body weight by gavage with rubber tube (Rusch No. 8) and rats were killed one hour later. The study design is presented as follows in Table A.
In the initial experiment, doses of sodium thiosulfate as its pentahydrate were given per os - (p.o.) either 30 minutes or 30 seconds before aspirin. The. 30 second pretreatment is virtually a parallel administration of the compounds.

[4] = Table G: 150 mg/kg each, single oral daily doses for 16 days
[5] = Table H: aspirin 150 mg/kg, Na thiosulfate 300 mg/kg, single oral daily doses for 16 days
[6] = Table D: 150 mg/kg each, controls 0
[7] = Table D: 150 mg/kg each, controls 0/10
[8] = Table D: 150 mg/kg each, controls 0, listed as aspirin
[9] = Table E: aspirin 150 mg/kg, Na thiosulfate 300 mg/kg, controls 0.04±0.04
[10] = Table E: aspirin 150 mg/kg, Na thiosulfate 300 mg/kg, controls 0.1±0.1
[11] = Table E: aspirin 150 mg/kg, Na thiosulfate 300 mg/kg, controls 1/10
[12] = parallel administration with aspirin 10 mg/100 g, converted from mg/100 g pentahydrate

Row | Compound | Injected Hind Paw Volume ml + S.E. [1, 4] | Area of Lesion (mm^2), Mean + S.E. (Aspirin Lesions; [6]) | No. of Lesions, Mean + S.E. (Aspirin Lesions; [6]) | No. of Rats with Lesions (Aspirin Lesions; [7]) | Area of Lesion (mm^2), Mean + S.E. (Aspirin Lesions; [9]) | No. of Lesions, Mean + S.E. (Aspirin Lesions; [10]) | No. of Rats with Lesions (Aspirin Lesions; [11]) | Mean Paw Edema, ml+S.E. ([2]; single oral dose 100 mg/kg) | toxicity (male Sprague-Dawley rats) | gastric cytoprotection ([3]; intragastric) | influence on the antiinflammatory efficacy of aspirin [1] | effectiveness as cytoprotectant against aspirin-induced gastric lesions in arthritic rats (Aspirin Lesions) | minimum statistically significant effective dose (MED) [3, 12] | also measured
1 | CC(=O)Oc1ccccc1C(=O)O [Aspirin, aspirin] | 3.31 ± 0.2 mL | 16.02±3.82 mm^2 | 15.2±2.9 | 10/10 | 11.61±4.42 mm^2 | 25.7±4.9 | 9/9 | 0.65 ± 0.1 mL |  |  |  |  |  | inhibition at 150 mg/kg [1, 4]: 61%; inhibition at 150 mg/kg [1, 5]: 43%; Area of Lesion (mm^2), Mean + S.E. (Aspirin Lesions; [8]): 16.02 mm^2; No. of Lesions, Mean + S.E. (Aspirin Lesions; [8]): 15.2; Area of Lesion (mm^2), Mean + S.E. (Aspirin Lesions; Table E: aspirin 150 mg/kg, Na thiosulfate 300 mg/kg, controls 0.04±0.04, listed as aspirin): 11.61 mm^2; No. of Lesions, Mean + S.E. (Aspirin Lesions; Table E: aspirin 150 mg/kg, Na thiosulfate 300 mg/kg, controls 0.1±0.1, listed as aspirin): 25.7; inhibition at 100 mg/kg ([2]; po): 44%
2 | CCCCC1C(=O)N(c2ccccc2)N(c2ccccc2)C1=O [Phenylbutazone, phenylbutazone] |  |  |  |  |  |  |  | 0.41 ± 0.03 mL |  |  |  |  |  | inhibition at 100 mg/kg ([2]; single oral dose 100 mg/kg, paw edema vs control, read-out: % Inhibition): 65%
3 | O=C(O)CCSCCC(=O)O [TBPA, 3,3'-Thiobis[propanoic acid]] |  |  |  |  |  |  |  |  | low order of toxicity | significant (p<0.01) gastric cytoprotection | did not reduce the antiinflammatory efficacy of ASA | effectiveness of TBPA as cytoprotectant against ASA-induced gastric lesions was also demonstrated |  | minimal effective dose ([3]; Rattus norvegicus, po, parallel administration with acidified aspirin 10 mg/100 g, intragastric, rats, area and number of lesions, read-out: minimum statistically significant effective dose (MED)): ~300 mg/kg
4 | anhydrous sodium thiosulfate [Na thiosulfate] | 5.21 ± 0.5 mL | 0.12±0.12 mm^2 | 0.4±0.4 | 1/5 | 0 mm^2 | 0 | 0/5 |  | low order of acute toxicity |  | did not influence the anti-inflammatory efficacy of aspirin | effective in reducing the number and size of lesions | about 32 mg/kg | gastric irritancy (male Sprague-Dawley rats; at the very high dose level of 7,000 mg/kg, single oral dose): gastric irritancy was observed; approximate acute oral LD50 (ALDsD) (male Sprague-Dawley rats; single oral dose, male rats fasted four hours, observed 7 days): 7,000 mg/kg; minimum statistically significant effective dose, as anhydrous form ([3]; coadministered with aspirin 10 mg/100 g, anhydrous equivalent of the pentahydrate dose): about 3 mg/100 g; effect on the development of arthritis ([1]; 150 or 300 mg/kg alone, single oral daily doses for 16 days): did not demonstrate an effect on the development of arthritis; % Inhibition [1, 4]: 10%; % Inhibition [1, 5]: 2%
5 | sodium thiosulfate |  |  |  |  |  |  |  |  | low order of toxicity | significant (p<0.01) gastric cytoprotection | did not reduce the antiinflammatory efficacy of aspirin |  |  | 
6 | sodium thiosulfate pentahydrate |  |  |  |  |  |  |  |  |  |  |  |  | about 50 mg/kg | protection against aspirin-induced gastric erosions ([3]; given p.o. 30 minutes before aspirin 10 mg/100 g): dose-dependent protection; minimum statistically significant effective dose (MED) ([3]; parallel administration with acidified aspirin 10 mg/100 g, intragastric, rats, area and number of lesions, listed as sodium thiosulfate as its pentahydrate): about 5 mg/100 g; minimum statistically significant effective dose (MED) ([3]; parallel administration with aspirin 10 mg/100 g, converted from mg/100 g): about 201 µmol/kg; Aspirin-induced Gastric Mucosal Erosions, percentage of glandular stomach area ([3]; single oral dose 1.0 mg/100 g body weight, aspirin concomitantly 10 mg/100 g in acidified 1% methylcellulose): 0.89 percentage of glandular stomach area; Aspirin-induced Gastric Mucosal Erosions, total number of erosions ([3]; single oral dose 1.0 mg/100 g body weight, aspirin concomitantly 10 mg/100 g): 6.67; Aspirin-induced Gastric Mucosal Erosions, percentage of glandular stomach area ([3]; single oral dose 5.0 mg/100 g body weight, aspirin concomitantly 10 mg/100 g, p<0.01): 0.18* percentage of glandular stomach area; Aspirin-induced Gastric Mucosal Erosions, total number of erosions ([3]; single oral dose 5.0 mg/100 g body weight, aspirin concomitantly 10 mg/100 g, p≤0.01): 1.56*; Aspirin-induced Gastric Mucosal Erosions, percentage of glandular stomach area ([3]; single oral dose 10.0 mg/100 g body weight, aspirin concomitantly 10 mg/100 g, p<0.01): 0.27* percentage of glandular stomach area; Aspirin-induced Gastric Mucosal Erosions, total number of erosions ([3]; single oral dose 10.0 mg/100 g body weight, aspirin concomitantly 10 mg/100 g, p≤0.01): 1.78*; Aspirin-induced Gastric Mucosal Erosions, percentage of glandular stomach area ([3]; single oral dose 30.0 mg/100 g body weight, aspirin concomitantly 10 mg/100 g, p<0.01): 0* percentage of glandular stomach area; Aspirin-induced Gastric Mucosal Erosions, total number of erosions ([3]; single oral dose 30.0 mg/100 g body weight, aspirin concomitantly 10 mg/100 g, p≤0.01): 0*
